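How tested: cells in 96-well plates exposed to compound for 48 hours at five concentrations. TGI denotes the concentration required for complete inhibition of growth.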
Columns and labels:
Experiment in all cases: NCI anticancer screen, dose series, 48 h
RXF 393 renal = test system: RXF 393 renal
COLO 205 colon = test system: COLO 205 colon
SK-MEL-5 melanoma = test system: SK-MEL-5 melanoma
SF-268 CNS = test system: SF-268 CNS
SN12C renal = test system: SN12C renal
UO-31 renal = test system: UO-31 renal
OVCAR-4 ovarian = test system: OVCAR-4 ovarian
U251 CNS = test system: U251 CNS
NCI-H23 lung = test system: NCI-H23 lung
SNB-78 CNS = test system: SNB-78 CNS
ACHN renal = test system: ACHN renal
SNB-19 CNS = test system: SNB-19 CNS
HT29 colon = test system: HT29 colon
M14 melanoma = test system: M14 melanoma
SR leukemia = test system: SR leukemia
A498 renal = test system: A498 renal
MDA-N = test system: MDA-N
NCI/ADR-RES ovarian = test system: NCI/ADR-RES ovarian
MDA-MB-435 = test system: MDA-MB-435
PC-3 prostate = test system: PC-3 prostate

Structure (SMILES)	TGI (RXF 393 renal)	TGI (COLO 205 colon)	TGI (SK-MEL-5 melanoma)	TGI (SF-268 CNS)	TGI (SN12C renal)	TGI (UO-31 renal)	TGI (OVCAR-4 ovarian)	TGI (U251 CNS)	TGI (NCI-H23 lung)	TGI (SNB-78 CNS)	TGI (ACHN renal)	TGI (SNB-19 CNS)	TGI (HT29 colon)	TGI (M14 melanoma)	TGI (SR leukemia)	TGI (A498 renal)	TGI (MDA-N)	TGI (NCI/ADR-RES ovarian)	TGI (MDA-MB-435)	TGI (PC-3 prostate)
NC(=O)NC1=NC(Cc2ccccc2)C(=O)N1Cc1ccccc1 (centres undefined)	> 100 µM	> 100 µM	> 100 µM	> 100 µM	> 100 µM	> 100 µM	> 100 µM	> 100 µM	> 100 µM	> 100 µM	> 100 µM	> 100 µM	> 100 µM	> 100 µM	> 100 µM	–	–	–	–	–
Cc1c(C(=O)/C=C/c2c(Cl)cccc2Cl)c(=O)n(-c2ccccc2)n1C	20.4 µM	> 100 µM	–	> 100 µM	> 100 µM	> 100 µM	–	2.98 µM	–	> 100 µM	> 100 µM	> 100 µM	> 100 µM	–	–	98.4 µM	–	–	–	–
C=C(Br)C(C)(Br)CCC(Br)C(C)(C)Br (centres undefined)	> 100 µM	35.8 µM	> 100 µM	91 µM	52.4 µM	> 100 µM	> 100 µM	38.4 µM	> 100 µM	70.4 µM	> 100 µM	–	> 100 µM	61.3 µM	54.7 µM	–	–	–	–	–
O=C(Nc1sccc1S(=O)(=O)c1ccc(Cl)cc1)c1ccccc1	> 100 µM	> 100 µM	> 100 µM	> 100 µM	> 100 µM	> 100 µM	> 100 µM	> 100 µM	> 100 µM	–	> 100 µM	> 100 µM	> 100 µM	> 100 µM	> 100 µM	> 100 µM	> 100 µM	> 100 µM	> 100 µM	> 100 µM

From PubChem BioAssay (NCI)
